ChEMBL document CHEMBL5058644, “Data for DCP probe JNJ-39758979” (2022)

Legend:
[1] = biological target: Serine/threonine-protein kinase WNK2 (Homo sapiens) (UniProt Q9Y3S1); assay: WNK2(h) Millipore kinase panel; details: Compound concentration 10.0 uM
[2] = biological target: Serine/threonine-protein kinase VRK2 (Homo sapiens) (UniProt Q86Y07); assay: VRK2(h) Millipore kinase panel; details: Compound concentration 10.0 uM
[3] = biological target: Adenosine receptor A1 (Homo sapiens) (UniProt P30542); assay: A1 (h) CEREP panel; details: Compound concentration 1.0 uM
[4] = biological target: Adenosine receptor A2a (Homo sapiens) (UniProt P29274); assay: A2A (h) CEREP panel; details: Compound concentration 1.0 uM
[5] = biological target: Adenosine receptor A3 (Homo sapiens) (UniProt P0DMS8); assay: A3 (h) CEREP panel; details: Compound concentration 1.0 uM
[6] = biological target: Adrenergic receptor alpha-1 (Homo sapiens) (UniProt P35348+P25100+P35368); assay: alpha 1 (non-selective) CEREP panel; details: Compound concentration 1.0 uM
[7] = biological target: Adrenergic receptor alpha-2 (Homo sapiens) (UniProt P08913+P18825+P18089); assay: alpha 2 (non-selective) CEREP panel; details: Compound concentration 1.0 uM
[8] = biological target: Beta-1 adrenergic receptor (Homo sapiens) (UniProt P08588); assay: beta 1 (h) CEREP panel; details: Compound concentration 1.0 uM
[9] = biological target: Sodium-dependent noradrenaline transporter (Homo sapiens) (UniProt P23975); assay: NE transporter (h) CEREP panel; details: Compound concentration 1.0 uM
[10] = BZD (central) CEREP panel; details: Compound concentration 1.0 uM
[11] = biological target: Cholecystokinin receptor type A (Homo sapiens) (UniProt P32238); assay: CCKA (h) (CCK1) CEREP panel; details: Compound concentration 1.0 uM
[12] = biological target: D(1A) dopamine receptor (Homo sapiens) (UniProt P21728); assay: D1 (h) CEREP panel; details: Compound concentration 1.0 uM
[13] = biological target: D(2) dopamine receptor (Homo sapiens) (UniProt P14416); assay: D2 (h) CEREP panel; details: Compound concentration 1.0 uM
[14] = biological target: Sodium-dependent dopamine transporter (Homo sapiens) (UniProt Q01959); assay: DA transporter (h) CEREP panel; details: Compound concentration 1.0 uM
[15] = biological target: Endothelin-1 receptor (Homo sapiens) (UniProt P25101); assay: ETA (h) CEREP panel; details: Compound concentration 1.0 uM
[16] = GABA (non-selective) CEREP panel; details: Compound concentration 1.0 uM
[17] = biological target: Galanin receptor type 2 (Homo sapiens) (UniProt O43603); assay: GAL2 (h) CEREP panel; details: Compound concentration 1.0 uM
[18] = biological target: C-X-C chemokine receptor type 2 (Homo sapiens) (UniProt P25025); assay: IL-8B (h) (CXCR2) CEREP panel; details: Compound concentration 1.0 uM
[19] = biological target: C-C chemokine receptor type 1 (Homo sapiens) (UniProt P32246); assay: CCR1 (h) CEREP panel; details: Compound concentration 1.0 uM
[20] = biological target: Histamine H1 receptor (Homo sapiens) (UniProt P35367); assay: H1 (h) CEREP panel; details: Compound concentration 1.0 uM
[21] = biological target: Histamine H2 receptor (Homo sapiens) (UniProt P25021); assay: H2 (h) CEREP panel; details: Compound concentration 1.0 uM
[22] = biological target: Melanocortin receptor 4 (Homo sapiens) (UniProt P32245); assay: MC4 (h) CEREP panel; details: Compound concentration 1.0 uM
[23] = MT1 CEREP panel; details: Compound concentration 1.0 uM
[24] = biological target: Muscarinic acetylcholine receptor M1 (Homo sapiens) (UniProt P11229); assay: M1 (h) CEREP panel; details: Compound concentration 1.0 uM
[25] = biological target: Muscarinic acetylcholine receptor M2 (Homo sapiens) (UniProt P08172); assay: M2 (h) CEREP panel; details: Compound concentration 1.0 uM
[26] = biological target: Muscarinic acetylcholine receptor M3 (Homo sapiens) (UniProt P20309); assay: M3 (h) CEREP panel; details: Compound concentration 1.0 uM
[27] = biological target: Substance-K receptor (Homo sapiens) (UniProt P21452); assay: NK2 (h) CEREP panel; details: Compound concentration 1.0 uM
[28] = biological target: Neuromedin-K receptor (Homo sapiens) (UniProt P29371); assay: NK3 (h) CEREP panel; details: Compound concentration 1.0 uM
[29] = biological target: Neuropeptide Y receptor type 1 (Homo sapiens) (UniProt P25929); assay: Y1 (h) CEREP panel; details: Compound concentration 1.0 uM
[30] = biological target: Neuropeptide Y receptor type 2 (Homo sapiens) (UniProt P49146); assay: Y2 (h) CEREP panel; details: Compound concentration 1.0 uM
[31] = biological target: Neurotensin receptor type 1 (Homo sapiens) (UniProt P30989); assay: NT1 (h) (NTS1) CEREP panel; details: Compound concentration 1.0 uM
[32] = biological target: Delta-type opioid receptor (Homo sapiens) (UniProt P41143); assay: delta (h) CEREP panel; details: Compound concentration 1.0 uM
[33] = biological target: Kappa-type opioid receptor (Homo sapiens) (UniProt P41145); assay: kappa (h) CEREP panel; details: Compound concentration 1.0 uM
[34] = biological target: Mu-type opioid receptor (Homo sapiens) (UniProt P35372); assay: mu (h) CEREP panel; details: Compound concentration 1.0 uM
[35] = biological target: Nociceptin receptor (Homo sapiens) (UniProt P41146); assay: ORL1 (h) CEREP panel; details: Compound concentration 1.0 uM
[36] = biological target: 5-hydroxytryptamine receptor 1A (Homo sapiens) (UniProt P08908); assay: 5-HT1A (h) CEREP panel; details: Compound concentration 1.0 uM
[37] = biological target: 5-hydroxytryptamine receptor 1B (Homo sapiens) (UniProt P28222); assay: 5-HT1B CEREP panel; details: Compound concentration 1.0 uM
[38] = biological target: 5-hydroxytryptamine receptor 2A (Homo sapiens) (UniProt P28223); assay: 5-HT2A (h) CEREP panel; details: Compound concentration 1.0 uM
[39] = biological target: 5-hydroxytryptamine receptor 3A (Homo sapiens) (UniProt P46098); assay: 5-HT3 (h) CEREP panel; details: Compound concentration 1.0 uM
[40] = biological target: 5-hydroxytryptamine receptor 5A (Homo sapiens) (UniProt P47898); assay: 5-HT5A (h) (5-ht5a) CEREP panel; details: Compound concentration 1.0 uM
[41] = biological target: 5-hydroxytryptamine receptor 6 (Homo sapiens) (UniProt P50406); assay: 5-HT6 (h) (5-ht6) CEREP panel; details: Compound concentration 1.0 uM
[42] = biological target: 5-hydroxytryptamine receptor 7 (Homo sapiens) (UniProt P34969); assay: 5-HT7 (h) CEREP panel; details: Compound concentration 1.0 uM
[43] = sst (non-selective) CEREP panel; details: Compound concentration 1.0 uM
[44] = biological target: Vasoactive intestinal polypeptide receptor 1 (Homo sapiens) (UniProt P32241); assay: VIP1 (h) (VPAC1) CEREP panel; details: Compound concentration 1.0 uM
[45] = biological target: Vasopressin V1a receptor (Homo sapiens) (UniProt P37288); assay: V1A (h) CEREP panel; details: Compound concentration 1.0 uM
[46] = Ca2+ channel CEREP panel; details: Compound concentration 1.0 uM
[47] = K+V channel CEREP panel; details: Compound concentration 1.0 uM
[48] = SK+Ca channel CEREP panel; details: Compound concentration 1.0 uM
[49] = Na+ channel (site 2) CEREP panel; details: Compound concentration 1.0 uM
[50] = Cl- channel CEREP panel; details: Compound concentration 1.0 uM

Sequence of Adenosine receptor A2a (Homo sapiens) (P29274 whole entry): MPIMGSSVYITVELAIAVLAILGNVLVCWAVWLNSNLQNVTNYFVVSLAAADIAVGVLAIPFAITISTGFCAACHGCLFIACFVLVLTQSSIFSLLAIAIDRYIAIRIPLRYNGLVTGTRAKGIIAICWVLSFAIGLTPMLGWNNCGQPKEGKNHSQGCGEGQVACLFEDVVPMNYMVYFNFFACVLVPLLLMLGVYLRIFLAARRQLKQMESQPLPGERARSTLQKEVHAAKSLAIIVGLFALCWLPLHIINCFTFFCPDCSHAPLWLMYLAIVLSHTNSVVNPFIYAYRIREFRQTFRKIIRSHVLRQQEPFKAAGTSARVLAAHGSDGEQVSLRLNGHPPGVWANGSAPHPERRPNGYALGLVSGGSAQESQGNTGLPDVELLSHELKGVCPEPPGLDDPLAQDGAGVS
Sequence of Vasopressin V1a receptor (Homo sapiens) (P37288 whole entry, looked up): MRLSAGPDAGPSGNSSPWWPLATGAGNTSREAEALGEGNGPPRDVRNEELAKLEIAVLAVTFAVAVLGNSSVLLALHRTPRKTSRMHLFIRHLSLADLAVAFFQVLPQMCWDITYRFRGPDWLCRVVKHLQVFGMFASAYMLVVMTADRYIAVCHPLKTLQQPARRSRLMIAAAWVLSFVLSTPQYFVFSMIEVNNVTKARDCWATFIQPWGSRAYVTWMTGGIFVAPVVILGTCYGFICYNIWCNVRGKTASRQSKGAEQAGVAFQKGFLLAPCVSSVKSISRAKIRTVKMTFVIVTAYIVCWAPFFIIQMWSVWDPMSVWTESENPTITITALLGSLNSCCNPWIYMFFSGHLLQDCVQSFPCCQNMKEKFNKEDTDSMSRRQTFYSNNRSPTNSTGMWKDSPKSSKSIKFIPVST
Sequence of Neurotensin receptor type 1 (Homo sapiens) (P30989 whole entry): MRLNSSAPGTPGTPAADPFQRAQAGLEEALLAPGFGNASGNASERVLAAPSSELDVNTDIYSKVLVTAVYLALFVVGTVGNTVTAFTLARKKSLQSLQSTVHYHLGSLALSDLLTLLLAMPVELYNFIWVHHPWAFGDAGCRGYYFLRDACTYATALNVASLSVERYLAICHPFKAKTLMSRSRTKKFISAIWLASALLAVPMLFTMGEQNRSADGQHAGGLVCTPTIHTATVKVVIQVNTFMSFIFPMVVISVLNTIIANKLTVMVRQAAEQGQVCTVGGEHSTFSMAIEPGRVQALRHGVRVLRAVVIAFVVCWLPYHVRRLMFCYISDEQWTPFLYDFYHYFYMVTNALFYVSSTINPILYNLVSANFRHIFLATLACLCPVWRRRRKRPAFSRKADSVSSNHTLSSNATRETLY
Sequence of Vasoactive intestinal polypeptide receptor 1 (Homo sapiens) (P32241 whole entry): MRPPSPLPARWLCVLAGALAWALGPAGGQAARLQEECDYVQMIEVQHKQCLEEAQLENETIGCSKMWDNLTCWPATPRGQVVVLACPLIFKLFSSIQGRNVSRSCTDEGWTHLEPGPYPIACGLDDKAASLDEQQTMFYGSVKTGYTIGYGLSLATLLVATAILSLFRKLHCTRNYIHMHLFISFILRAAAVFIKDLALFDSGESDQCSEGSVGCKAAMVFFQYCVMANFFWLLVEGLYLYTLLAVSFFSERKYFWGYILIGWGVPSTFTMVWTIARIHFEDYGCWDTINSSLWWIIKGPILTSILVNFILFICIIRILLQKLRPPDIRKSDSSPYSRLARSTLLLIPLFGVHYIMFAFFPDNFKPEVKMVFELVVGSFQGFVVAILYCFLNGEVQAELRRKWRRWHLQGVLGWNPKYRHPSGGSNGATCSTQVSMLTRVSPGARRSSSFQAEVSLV
Sequence of D(2) dopamine receptor (Homo sapiens) (P14416 whole entry): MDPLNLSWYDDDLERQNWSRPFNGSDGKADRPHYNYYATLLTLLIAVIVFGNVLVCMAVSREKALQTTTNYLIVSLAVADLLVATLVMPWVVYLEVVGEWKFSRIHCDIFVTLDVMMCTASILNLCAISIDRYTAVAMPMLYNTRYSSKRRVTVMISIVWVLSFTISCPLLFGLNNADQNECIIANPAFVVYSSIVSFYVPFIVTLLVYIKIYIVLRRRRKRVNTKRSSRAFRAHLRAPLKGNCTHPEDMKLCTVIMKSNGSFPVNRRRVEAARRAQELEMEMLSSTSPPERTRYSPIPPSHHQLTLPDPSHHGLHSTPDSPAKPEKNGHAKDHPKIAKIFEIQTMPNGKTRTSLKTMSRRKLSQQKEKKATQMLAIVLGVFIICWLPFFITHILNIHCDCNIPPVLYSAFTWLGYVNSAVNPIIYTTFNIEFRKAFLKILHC
Sequence of Delta-type opioid receptor (Homo sapiens) (P41143 whole entry): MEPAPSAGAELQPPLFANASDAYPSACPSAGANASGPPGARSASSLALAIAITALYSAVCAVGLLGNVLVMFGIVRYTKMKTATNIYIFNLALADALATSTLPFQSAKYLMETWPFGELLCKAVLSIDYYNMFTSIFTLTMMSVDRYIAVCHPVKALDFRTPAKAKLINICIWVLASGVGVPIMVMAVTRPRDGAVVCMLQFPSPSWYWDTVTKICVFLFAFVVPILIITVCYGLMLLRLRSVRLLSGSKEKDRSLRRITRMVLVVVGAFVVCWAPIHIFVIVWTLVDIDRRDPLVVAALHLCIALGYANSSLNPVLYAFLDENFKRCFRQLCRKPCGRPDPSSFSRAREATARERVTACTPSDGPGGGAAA
Sequence of Beta-1 adrenergic receptor (Homo sapiens) (P08588 whole entry, looked up): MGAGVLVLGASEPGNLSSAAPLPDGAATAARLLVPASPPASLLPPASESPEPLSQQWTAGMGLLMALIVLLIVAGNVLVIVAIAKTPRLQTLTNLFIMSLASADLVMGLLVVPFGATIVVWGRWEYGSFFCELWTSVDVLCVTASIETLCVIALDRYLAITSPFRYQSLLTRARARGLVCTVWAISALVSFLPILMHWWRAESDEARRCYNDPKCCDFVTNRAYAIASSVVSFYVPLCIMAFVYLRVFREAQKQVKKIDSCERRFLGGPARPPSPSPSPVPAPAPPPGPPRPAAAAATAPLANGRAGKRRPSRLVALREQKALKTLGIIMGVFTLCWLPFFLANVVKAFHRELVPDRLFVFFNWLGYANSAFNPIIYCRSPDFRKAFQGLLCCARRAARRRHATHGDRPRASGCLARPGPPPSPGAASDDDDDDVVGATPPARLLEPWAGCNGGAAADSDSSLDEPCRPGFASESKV
Sequence of 5-hydroxytryptamine receptor 1B (Homo sapiens) (P28222 whole entry): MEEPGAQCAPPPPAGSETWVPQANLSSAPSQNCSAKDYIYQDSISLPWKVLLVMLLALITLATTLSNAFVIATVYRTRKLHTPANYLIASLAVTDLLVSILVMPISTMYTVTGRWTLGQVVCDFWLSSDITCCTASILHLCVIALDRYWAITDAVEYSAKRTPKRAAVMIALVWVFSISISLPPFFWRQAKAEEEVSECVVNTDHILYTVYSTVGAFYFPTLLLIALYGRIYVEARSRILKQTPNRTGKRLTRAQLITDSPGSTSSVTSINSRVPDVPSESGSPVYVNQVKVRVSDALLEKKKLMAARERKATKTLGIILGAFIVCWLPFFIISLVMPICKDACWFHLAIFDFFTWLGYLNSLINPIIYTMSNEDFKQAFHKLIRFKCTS
Sequence of Neuropeptide Y receptor type 1 (Homo sapiens) (P25929 whole entry): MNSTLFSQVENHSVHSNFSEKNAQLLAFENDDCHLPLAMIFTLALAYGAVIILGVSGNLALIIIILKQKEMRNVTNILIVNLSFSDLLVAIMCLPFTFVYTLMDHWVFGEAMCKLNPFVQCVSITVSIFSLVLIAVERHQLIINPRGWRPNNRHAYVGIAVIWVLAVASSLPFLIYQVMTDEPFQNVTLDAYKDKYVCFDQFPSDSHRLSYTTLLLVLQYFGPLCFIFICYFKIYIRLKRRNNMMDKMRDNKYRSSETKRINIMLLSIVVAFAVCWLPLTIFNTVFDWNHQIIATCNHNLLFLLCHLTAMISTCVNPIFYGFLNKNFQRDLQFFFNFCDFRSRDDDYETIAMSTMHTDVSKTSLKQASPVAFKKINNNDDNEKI
Sequence of 5-hydroxytryptamine receptor 3A (Homo sapiens) (P46098 whole entry): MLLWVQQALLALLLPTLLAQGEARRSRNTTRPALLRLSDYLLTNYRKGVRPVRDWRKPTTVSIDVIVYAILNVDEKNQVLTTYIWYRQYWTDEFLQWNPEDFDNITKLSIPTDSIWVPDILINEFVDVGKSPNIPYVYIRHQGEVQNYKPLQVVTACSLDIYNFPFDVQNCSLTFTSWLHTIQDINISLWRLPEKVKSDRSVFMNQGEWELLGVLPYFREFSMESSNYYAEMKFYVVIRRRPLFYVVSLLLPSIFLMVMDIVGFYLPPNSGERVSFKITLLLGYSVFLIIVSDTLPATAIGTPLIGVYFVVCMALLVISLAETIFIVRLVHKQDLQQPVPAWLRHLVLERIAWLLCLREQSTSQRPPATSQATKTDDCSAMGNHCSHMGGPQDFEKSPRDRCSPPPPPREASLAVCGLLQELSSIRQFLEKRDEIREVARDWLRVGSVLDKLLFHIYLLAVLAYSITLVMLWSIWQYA
Sequence of Histamine H2 receptor (Homo sapiens) (P25021 whole entry): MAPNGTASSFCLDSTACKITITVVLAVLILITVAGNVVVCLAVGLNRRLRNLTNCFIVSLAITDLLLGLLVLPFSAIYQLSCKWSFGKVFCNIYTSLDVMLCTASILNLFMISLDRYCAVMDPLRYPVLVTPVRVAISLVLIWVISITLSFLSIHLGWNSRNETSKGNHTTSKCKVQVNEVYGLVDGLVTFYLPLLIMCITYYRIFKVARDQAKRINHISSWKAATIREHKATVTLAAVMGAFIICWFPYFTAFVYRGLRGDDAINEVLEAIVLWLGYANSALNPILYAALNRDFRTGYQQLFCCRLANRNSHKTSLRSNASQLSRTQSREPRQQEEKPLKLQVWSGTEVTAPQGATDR
Sequence of Melanocortin receptor 4 (Homo sapiens) (P32245 whole entry): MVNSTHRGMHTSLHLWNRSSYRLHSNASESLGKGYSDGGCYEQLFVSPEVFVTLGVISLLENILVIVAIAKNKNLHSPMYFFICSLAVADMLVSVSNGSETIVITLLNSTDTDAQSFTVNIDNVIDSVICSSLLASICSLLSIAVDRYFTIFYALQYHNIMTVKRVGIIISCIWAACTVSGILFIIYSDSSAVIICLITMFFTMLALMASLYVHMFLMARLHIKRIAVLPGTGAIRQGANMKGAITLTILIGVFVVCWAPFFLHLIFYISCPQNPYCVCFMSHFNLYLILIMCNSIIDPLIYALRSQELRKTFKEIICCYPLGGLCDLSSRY

inhibition [1]: -5% | inhibition [2]: -2% | inhibition [3]: < 10% | inhibition [4]: < 10% | inhibition [5]: < 10% | inhibition [6]: < 10% | inhibition [7]: 18% | inhibition [8]: < 10% | inhibition [9]: 10% | inhibition [10]: < 10% | inhibition [11]: < 10% | inhibition [12]: < 10% | inhibition [13]: < 10% | inhibition [14]: 18% | inhibition [15]: 15% | inhibition [16]: < 10% | inhibition [17]: < 10% | inhibition [18]: < 10% | inhibition [19]: < 10% | inhibition [20]: < 10% | inhibition [21]: < 10% | inhibition [22]: < 10% | inhibition [23]: < 10% | inhibition [24]: 19% | inhibition [25]: < 10% | inhibition [26]: 64% | inhibition [27]: < 10% | inhibition [28]: < 10% | inhibition [29]: < 10% | inhibition [30]: < 10% | inhibition [31]: < 10% | inhibition [32]: < 10% | inhibition [33]: < 10% | inhibition [34]: < 10% | inhibition [35]: < 10% | inhibition [36]: < 10% | inhibition [37]: < 10% | inhibition [38]: < 10% | inhibition [39]: < 10% | inhibition [40]: < 10% | inhibition [41]: < 10% | inhibition [42]: < 10% | inhibition [43]: < 10% | inhibition [44]: < 10% | inhibition [45]: < 10% | inhibition [46]: < 10% | inhibition [47]: < 10% | inhibition [48]: < 10% | inhibition [49]: < 10% | inhibition [50]: < 10%
Compound: CC(C)c1cc(N2CC[C@@H](N)C2)nc(N)n1
